Patent US11806393B2, “Flavivirus peptide sequences, epitopes, and methods and uses thereof” (priority 2017, dated 2023)

How the values were obtained:
Assay type in all cases: cell-based, mouse
[1] = system: CD44+ CD4+ T cells; assay: ICS, ZIKV SD001-infected Ifnar1-/- HLA-DRB1*0101 mice; conditions: for cytokines produced by ZIKV-primed CD4+ T cells on peptide stimulation: ZIKV SD001, day 7; for identification as Th1 epitope (IFNγ, TNF, IL-2 ICS): ZIKV-primed CD4+ T cells
Protocol: Ifnar1^−/− HLA-DRB1*0101 mice were infected retro-orbitally with 1×10^2 FFU of ZIKV strain SD001 for 7 days. Splenocytes were stimulated in vitro with the indicated ZIKV-derived HLA-DRB1*0101-binding peptides for 6 h, and the frequency of CD44^+ CD4^+ T cells producing IFNγ, TNF, or IFNγ plus TNF (A), IL-2 (B), and IL-17 (C) were detected using the ICS assay. Data represent the mean±s.e.m. of four independent experiments (n=3-5 mice/experiment; total 16 mice). *P<0.05, **P<0.01, ***P<0.001, ****P<0.0001 by two-tailed Mann-Whitney test. Negative and positive refer to cells incubated alone or with PMA/ionomycin, respectively. […]
(§1) For the 30-peptide epitope screen, 5-week-old female or male mice were infected retro-orbitally (r.o.) with either 1×10^2 focus-forming units (FFU) of ZIKV SD001 or 2×10^3 FFU of DENV2 S221 in 200 μl of 10% fetal bovine serum in phosphate-buffered saline (FBS/PBS). Seven days after infection, spleens were removed and single-cell splenocyte suspensions were prepared. A total of 1×10^6 splenocytes was plated in each well of a 96-well U-bottom plate and stimulated with individual peptides (20 μg crude peptide per well) for 6 h. One hour into the incubation, brefeldin A (GolgiPlug, BD Biosciences) was added to the cells. Positive and negative controls were splenocytes stimulated with phorbol-12-myristate-13-acetate (PMA, 0.1 μg/ml) and ionomycin (1 μg/ml) or incubated alone, respectively.
(§2) After incubation of splenocytes with peptides or PMA/ionomycin, cells were harvested, washed, and incubated with Fc Block (CD16/CD32 mAb 2.4G2, BD Biosciences), followed by staining with fixable Live/Dead blue viability stain (Life technologies) and the following antibodies: PerCP-Cy5.5-conjugated anti-CD3 mAb (clone 145-2C11, Tonbo), APC-eFluor780-conjugated anti-CD4 mAb (clone GK1.5, Invitrogen), Brilliant Violet (BV) 785-conjugated anti-CD44 mAb (clone IMT, Biolegend), PE-conjugated anti-CD11a (clone M17/4, Biolegend), BV605-conjugated anti-CD49d (clone 9C10(MFR4.B, Biolegend), PE-conjugated anti-CD25 mAb (clone PC61, Biolegend), PE-conjugated or biotin-conjugated anti-CD185 mAb (CXCR5, clone SPRC15; Invitrogen), BV 605-conjugated anti-[…] mAb (PD1, clone 29F.1A12; Biolegend), and/or BV 421-conjugated streptavidin (#405225, Biolegend). Cells were then fixed and permeabilized using Cytofix/Cytoperm solution (BD Biosciences), followed by staining with FITC-conjugated anti-IFNγ mAb (clone XMG1.2, Tonbo), Alexa Fluor 700- or APC-conjugated anti-TNF mAb (clone MP6-XT22, eBioscience), PE-, BV 421-, or BV 711-conjugated anti-IL-2 mAb (clone JES6-5H4, Biolegend), APC-conjugated anti-IL-4 mAb (clone 11B11, Biolegend), PE-conjugated anti-IL-5 mAb (clone TRFK5, eBioscience), BV510-conjugated anti-IL-17A mAb (clone 17B7, eBioscience), and/or Alexa Fluor 700-conjugated anti-FoxP3 mAb (clone FJK-16S, eBioscience). Data were collected using an LSR Fortessa flow cytometer (BD Biosciences) and analyzed using FlowJo software X 10.0.7 (Tree Star).

[2] = system: CD44+ CD4+ T cells; assay: ICS, DENV2 S221-infected Ifnar1-/- HLA-DRB1*0101 mice; conditions: for cytokines produced by DENV2-primed CD4+ T cells on peptide stimulation / cross-reactive response by DENV2-primed CD4+ T cells: DENV2 S221, day 7
Protocol: Ifnar1^−/− HLA-DRB1*0101 mice were infected intraperitoneally with 2×10^3 FFU of DENV2 strain […] for 7 days. Splenocytes were stimulated in vitro with the indicated ZIKV-derived HLA-DRB1*0101-binding peptides for 6 h. The frequency of CD44^+ CD4^+ T cells producing IFNγ, TNF, or IFNγ plus TNF (A) or IL-2 (B) were detected using the ICS assay. Data represent the mean±s.e.m. of three independent experiments (n=3-4 mice/experiment; total 10 mice). *P<0.05, **P<0.01, ***P<0.001, ****P<0.0001 by two-tailed Mann-Whitney test. Negative and positive refer to cells incubated alone or with PMA/ionomycin, respectively.
as §1, §2

[3] = system: CD8+ T cells; assay: IFNγ ELISPOT, ZIKV-infected Ifnar-/- HLA-A*0101 transgenic mice; conditions: HLA-A*0101 mice; for SFC/10^6 CD8+ T cells, FSS13025: 7 days after ZIKV FSS13025; for SFC/10^6 CD8+ T cells, MR766: 7 days after ZIKV MR766
Protocol: Two ZIKV strains, MR766 (Uganda, 1947) and FSS13025 (Cambodia, 2010), were obtained from the World Reference Center for Emerging Viruses and Arboviruses (WRCEVA). The mouse-adapted DENV2 strain S221 is a triple-plaque purified clone derived from DENV2 D2S1038. Both ZIKV and DENV2 were amplified in C6/36 mosquito cells, and viral titers were measured using baby hamster kidney (BHK)-21 cell-based focus forming assay (FFA). For epitope screening, 5-week old mice (female or male) were infected retro-orbitally (R.O.) with either 1×102 FFU of ZIKV FSS13025 or ZIKV MR766, or 2×10^4 FFU of DENV2 S221 in 200 μl 10% FBS/PBS. Seven days after infection, CD8^+ T cells were isolated from splenocytes and used for ELISPOT assay, while the splenocytes were directly used for ICS assay. Additionally, 5-week old mice were inoculated I.P. with 2×10^3 FFU of DENV2 S221 for 4 weeks.
CD8^+ T cells were isolated from splenocytes using magnetic bead positive selection (Miltenyi Biotec, Germany) 7 days after virus infection. 2×10^5 CD8^+ T cells were stimulated with 1×10^5 LPS-blasts loaded with 10 μg of individual peptide in 96-well flat-bottom plates (IMMOBILON™-P; Millipore, Bedford, Mass.) that were coated with anti-IFNγ mAb (clone AN18; Mabtech, Stockholm, Sweden) in triplicate. Concanavalin A (ConA) was used as positive control. After 20 hours of incubation, biotinylated anti-mouse IFNγ mAb (R4-6A2; Mabtech), followed by ABC peroxidase (Vector Laboratories, Burlingame, Calif., USA) and then 3-amino-9-ethylcarbazole (Sigma-Aldrich, St. Louis, Mo., USA) were added into the wells. […] A peptide inducing a magnitude of >500 SFCs/10^6 CD8^+ T cells was considered as an immunodominant peptide.
The following results are with respect to FIG. 9, where IFNγ ELISPOT was performed using CD8+ T cells isolated from Ifnar^−/− HLA-B*0702 transgenic mice (a and b) and Ifnar^−/− HLA-A*0101 transgenic mice (d and e) 7 days after retro-orbital (R.O.) infection with 1×10^2 FFU of ZIKV strain FSS13025 or MR766. Two independent experiments performed in triplicate were averaged and the error bars represent the SEM. The data are expressed as the mean number of spot forming cells (SFC) per 10^6 CD8^+ T cells. The criteria for positivity were net SFC per 10^6 cells of >20, and a stimulation index of >2.0 when compared with the negative control. Dotted lines represent the cutoff value. * Indicates a positive response. All positive peptides were grouped according the corresponding ZIKV protein (c and f); white and black bars are the total IFNγ response of all identified positive peptides from an indicated protein; numbers in parentheses are the number of positive peptides in this protein. ConA denotes Concanavalin A.

[4] = 7 days after DENV2 S221, 6 h stimulation
[5] = 7 days after ZIKV SD001, 6 h stimulation

Sequence | cytokines produced by ZIKV-primed CD4+ T cells on peptide stimulation [1] | cytokines produced by DENV2-primed CD4+ T cells on peptide stimulation [2] | SFC/10^6 CD8+ T cells, FSS13025 [3] | SFC/10^6 CD8+ T cells, MR766 [3] | also measured
LPFVMALGLTAVRLV [NS2A134-198] | did not elicit a response by ZIKV-primed cells | induce TNF production |  |  | % CD4+ CD44+ T cells (DENV) TNFα+ [2, 4]: 0.397%
MSALEFYSY [FSS/MR-NS4B270-278] |  |  | 378 SFC/10^6 CD8+ T cells |  | 
MTERFQEAI [FSS/MR-NS4A14-22] |  |  |  | 266 SFC/10^6 CD8+ T cells | 
NLEYRIMLSVHGSQH [E134-148] | stimulated only IL-2 production | induced only IL-2-producing cells |  |  | % CD4+ CD44+ T cells (ZIKV) IL-2+ [1, 5]: 0.19%; identification as Th1 epitope (IFNγ, TNF, IL-2 ICS) [1]: Th1 epitopes; % CD4+ CD44+ T cells (DENV) IL-2+ [2, 4]: 0.459%; cross-reactive response by DENV2-primed CD4+ T cells [2]: elicited cross-reactive responses
VTRRGNAYY [FSS-C125-prM8] |  |  |  | 266 SFC/10^6 CD8+ T cells | 
WAIYAALTTFITPAV [NS4B40-54] | stimulated IFNγ plus TNF production | induced only TNF-producing cells |  |  | % CD4+ CD44+ T cells (ZIKV) INFγ+ TNFα+ [1, 5]: 0.049%; identification as Th1 epitope (IFNγ, TNF, IL-2 ICS) [1]: Th1 epitopes; % CD4+ CD44+ T cells (DENV) TNFα+ [2, 4]: 0.367%; cross-reactive response by DENV2-primed CD4+ T cells [2]: elicited cross-reactive responses
YAQMWQLLY [FSS/MR-NS5509-517] |  |  | 313 SFC/10^6 CD8+ T cells | 225 SFC/10^6 CD8+ T cells | 
YLAGASLIY [FSS/MR-NS4B231-239] |  |  | 1646 SFC/10^6 CD8+ T cells | 1574 SFC/10^6 CD8+ T cells | immunodominance in IFNγ ELISPOT ([3]; immunodominant: >500 SFCs/10^6 CD8+ T cells, shared by both ZIKV strains): most immunodominant epitope
YLDKQSDTQY [FSS/MR-E81-90] |  |  | 495 SFC/10^6 CD8+ T cells | 258 SFC/10^6 CD8+ T cells | 
